Experimental data as given in US20030170312A1, “Method for coating solid particles with a thermofusible agent, and resulting coated solid particles” (priority 2000, published 2003).
Each block holds one compound with its values, some of them ahead of it.

Assay: Particle size (mean/median diameter, D50) before and after coating
Type: physicochemical
Text: On FIG. 1, the distribution of the particles before and after coating has been represented. As shown in this figure, the set of coated particles has the same distribution as that of the uncoated particles, showing not only that the particles were evenly coated, but also that the amount of coating is less. Thus, it is observed that the mean diameter of the particles before coating is equal to 176 micrometers, while the mean diameter of the coated particles is equal to 180 micrometers. […] FIG. 2 represents in parallel the distribution of the particles before and after coating. As shown in this figure, the set of coated particles has the same distribution as those of the uncoated particles, showing not only that the particles were evenly coated, but also that the amount of coating is less. Thus, it is observed that the mean diameter of the particles before coating is equal to 60 micrometers, while the mean diameter of the coated particles is equal to 75 micrometers. The table below represents the mean size of the ibuprofen particles (D50) before and after coating. FIG. 5 represents in parallel the distribution of the particles before and after coating.

Median (D50) particle size (Example 4: paracetamol with Precirol ATO 5, theoretical 6% by mass): 326.1 μm
Structure (SMILES): CC(=O)Nc1ccc(O)cc1 [compound 99292402, Paracetamol]

Mean (D50) size of the ibuprofen particles (Example 2: ibuprofen with PRECIROL in the proportion of 15%): 130.0 μm
Structure (SMILES): CC(C)Cc1ccc(C(C)C(=O)O)cc1 (stereo not drawn) [5200I1014, ibuprofen]

mean diameter of the particles (Example 1: ibuprofen before and after coating with PRECIROL, coating 7% by weight): 176 micrometers
Structure (SMILES): CC(C)Cc1ccc(C(C)C(=O)O)cc1 (stereo not drawn) [ibuprofen]
